In publication PMC4627091 (2015):

Legend:
[1] = system: Spinach with GAAA tetraloop (RNA, aptamer) GGGAACACAAUAAUAAAACUUACAAACAAGAAAAAAAAGACGCGACUGAAUGAAAUGGUGAAGGACGGGUCCAGCUGCGAAAGCAGCUUGUUGAGUAGAGUGUGAGCUCCGUAACUAGUCGCGUC; assay: on-chip fluorescence titration and melting; conditions: 125 mM KCl, 5 mM MgCl2; 40 mM HEPES, 5% DMSO; comparable to UUCG loop; immobilised RNA
[2] = system: Spinach U50C (RNA, aptamer) GGGAACACAAUAAUAAAACUUACAAACAAGAAAAAAAAGACGCGACUGAAUGAAAUGGUGAAGGACGGGUCCAGCUGCUUCGGCAGCCUGUUGAGUAGAGUGUGAGCUCCGUAACUAGUCGCGUC; assay: on-chip fluorescence titration (mLSI pull-down); conditions: 125 mM KCl, 5 mM MgCl2; 40 mM HEPES, 5% DMSO; temperature of this value not stated; immobilised RNA
[3] = system: wt Spinach without anchor sequence (in solution) (RNA, aptamer) GACGCGACUGAAUGAAAUGGUGAAGGACGGGUCCAGCUGCUUCGGCAGCUUGUUGAGUAGAGUGUGAGCUCCGUAACUAGUCGCGUC; assay: solution binding assay (off chip); conditions: buffer and temperature not stated
[4] = system: wt Spinach (87-nt, on chip, with 5' capture tag) (RNA, aptamer) GGGAACACAAUAAUAAAACUUACAAACAAGAAAAAAAAGACGCGACUGAAUGAAAUGGUGAAGGACGGGUCCAGCUGCUUCGGCAGCUUGUUGAGUAGAGUGUGAGCUCCGUAACUAGUCGCGUC; assay: on-chip fluorescence titration (mLSI pull-down); conditions: 125 mM KCl, 5 mM MgCl2; 40 mM HEPES, 5% DMSO; temperature of this value not stated (19-28°C series); immobilised RNA
[5] = system: wt Spinach with anchor sequence (in solution) (RNA, aptamer) GGGAACACAAUAAUAAAACUUACAAACAAGAAAAAAAAGACGCGACUGAAUGAAAUGGUGAAGGACGGGUCCAGCUGCUUCGGCAGCUUGUUGAGUAGAGUGUGAGCUCCGUAACUAGUCGCGUC; assay: solution binding assay (off chip); conditions: buffer and temperature not stated
[6] = system: Spinach with GUGA tetraloop (RNA, aptamer) GGGAACACAAUAAUAAAACUUACAAACAAGAAAAAAAAGACGCGACUGAAUGAAAUGGUGAAGGACGGGUCCAGCUGCGUGAGCAGCUUGUUGAGUAGAGUGUGAGCUCCGUAACUAGUCGCGUC; assay: on-chip fluorescence; conditions: 125 mM KCl, 5 mM MgCl2; loss of fluorescence attributed to misfolding; up to 43.5 μM DFHBI

Q: How did the binding [1] turn out when `CC1=N/C(=C\c2cc(F)c(O)c(F)c2)C(=O)N1C` was run?
A: Its binding is “yes”.

Q: What about the Kd [2] of the same compound?
A: Its Kd is 450 nM.

Q: What about the Kd [3] of the same compound?
A: The Kd was 530 nM.

Q: What about the Kd [4] of the same compound?
A: Its Kd is 1180 nM.

Q: What about the Kd [5] of the same compound?
A: The Kd was 680 nM.

Q: And the binding [6]?
A: Its binding is “no”.
